Measurements as given in patent publication US12679878B2, “CRF2 receptor agonists and their use in therapy” (SANOFI, priority 2020, dated 2026).
Like-named read-outs stand apart in the source and are kept apart here. Starred links: 1 amine or outer side, 2 acyl side, 3 side chain; linkers in the order of their positions; H or OH if unused. Non-standard residues stand in square brackets, D forms with d. Residues, ends and D or L forms follow the SMILES beside them. Groups on a side chain read outwards from the residue. *: point of attachment. C18 diacid = O=C(O)CCCCCCCCCCCCCCCCC(=O)*; γGlu = O=C(O)[C@H](CCC(=O)[*:2])N[*:1]; Palmitoyl = CCCCCCCCCCCCCCCC(=O)*; Aib = CC(C)(N)C(=O)O

Columns and labels:
Format in all cases: cell-based
rat CRF2R α receptor = test: cAMP agonism at rat CRF2R α receptor in A7R5 rat aortic smooth muscle cells (Example 8); settings: cAMP HTRF, A7R5 rat aortic smooth muscle cell line, 0% HSA
Experimental: Cells were grown in a T175 culture flask placed at 37° C. to near confluence in medium (DMEM/10% FBS) and collected in 2 ml vials in cell culture medium containing 10% DMSO in a concentration of 10-50 million cells/ml. Each vial contained 1.8 ml cells. The vials were slowly frozen to −80° C. in isopropanol and then transferred in liquid nitrogen for storage. Prior to use, frozen cells were thawed quickly at 37° C. and washed (5 min at 900 rpm) with 20 ml cell buffer (1×HBSS; 20 mM HEPES; 0% or 0.1% HSA). Cells were resuspended in assay buffer (cell buffer plus 2 mM IBMX) and adjusted to a cell density of 1 million cells/ml. For measurement, 5 μl cells (final […]) and 5 μL of test compound were added to a 384-well plate, followed by incubation for 30 minutes at room temperature.
The CAMP content of cells was determined using a kit from Cisbio Corp. (cat. no. 62AM4PEC) based on HTRF (Homogenous Time Resolved Fluorescence). After addition of HTRF reagents diluted in lysis buffer (kit components), the plates were incubated for 1 h, followed by measurement of the fluorescence ratio at 665/620 nm. The percent activity value (E %) was calculated by setting 1000 nM of urocortin 2 (UCN2) as 100%. The in vitro potency of the compounds was quantified by determining the concentrations that caused 50% activation of maximal response (EC50).
Using the procedure described in Example 7, the activity of the compounds at the rat CRF2R α receptor was assessed. The A7R5 rat aortic smooth muscle cell line was used in this study.

CRF1R receptor = biological target: T1, CRF1R receptor (Homo sapiens, UniProt P34998); test: cAMP activity at anti-target CRF1R, CHO-K1 cell line clone 2 (Example 19.10); settings: 100% = Sauvagine at 100 nM; CRF1R CHO-K1 clone 2
T1 construct: host or cells: CHO-K1 clone 2
T1 sequence (P34998 24-415): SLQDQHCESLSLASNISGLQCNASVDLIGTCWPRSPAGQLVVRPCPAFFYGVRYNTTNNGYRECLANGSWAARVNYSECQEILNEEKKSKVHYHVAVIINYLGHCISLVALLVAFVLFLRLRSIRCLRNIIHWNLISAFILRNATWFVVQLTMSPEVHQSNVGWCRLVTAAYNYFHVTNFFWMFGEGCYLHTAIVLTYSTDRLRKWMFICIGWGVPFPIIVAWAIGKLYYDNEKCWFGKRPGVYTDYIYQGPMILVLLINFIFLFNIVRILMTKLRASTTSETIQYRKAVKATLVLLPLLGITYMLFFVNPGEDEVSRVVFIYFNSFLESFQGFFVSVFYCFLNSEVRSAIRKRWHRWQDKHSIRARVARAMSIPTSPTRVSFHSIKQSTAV
Summary of the method: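 The cAMP read-out used the same protocol as the previous assay, except that Sauvagine at 100 nM set the 100% activation control. Cells were CHO-K1 clone 2 overexpressing CRF1R, cultured in F12 medium with 10% FBS and G418 and stored frozen until use.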

human CRF2α receptor = biological target: T2, human CRF2α receptor (Homo sapiens, UniProt Q13324); test: cAMP agonism at human CRF2 α receptor in TeloHEAC cells (Example 7); settings: cAMP HTRF, TeloHEAC cells stably expressing human CRF2 α
T2 construct: expressed in transfected cells; host or cells: TeloHEAC
T2 sequence (Q13324 1-411): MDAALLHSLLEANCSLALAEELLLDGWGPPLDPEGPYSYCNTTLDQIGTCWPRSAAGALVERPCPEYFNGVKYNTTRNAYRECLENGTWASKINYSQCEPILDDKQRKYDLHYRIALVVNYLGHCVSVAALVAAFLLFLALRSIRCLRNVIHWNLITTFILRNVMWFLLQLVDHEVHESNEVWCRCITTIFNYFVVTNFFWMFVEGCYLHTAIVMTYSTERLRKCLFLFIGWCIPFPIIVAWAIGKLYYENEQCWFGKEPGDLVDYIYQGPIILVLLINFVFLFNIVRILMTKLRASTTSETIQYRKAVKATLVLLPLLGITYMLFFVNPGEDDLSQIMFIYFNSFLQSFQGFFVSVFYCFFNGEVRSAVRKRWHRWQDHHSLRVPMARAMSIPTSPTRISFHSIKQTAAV
Summary of the method: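 HTRF ratio 665/620 nm, read 1 h after lysis reagents, reports cAMP. Cells: thawed stocks, 2000/well, 30 min RT with compound in HBSS, 20 mM HEPES, 0 or 0.1% HSA, 2 mM IBMX. Activity normalised to UCN2 1000 nM = 100%; EC50 from half-maximal activation.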

[1] = 0% HSA, read-out: EC50 [nM], 0% HSA
[2] = 0.1% HSA, read-out: EC50 [nM], 0.1% HSA

EC50 (rat CRF2R α receptor) [nM] | EC50 (human CRF2α receptor; [1]) [nM] | EC50 (human CRF2α receptor; [2]) [nM] | SMILES | Emax (CRF1R receptor) [%]
0.04 |  |  | CCCCCCCCCCCCCCCC(=O)N[C@@H](CCC(=O)NCCCC[C@H](NC(=O)[C@H](CC(C)C)NC(=O)CNC(=O)[C@@H](NC(=O)[C@@H]1CCCN1C(=O)[C@H](NC(=O)[C@H](CC(=O)O)NC(=O)[C@H](CC(C)C)NC(=O)[C@H](CO)NC(=O)[C@H](CC(C)C)NC(=O)[C@@H](NC(=O)[C@@H](N)[C@@H](C)CC)C(C)C)C(C)C)[C@@H](C)CC)C(=O)N[C@@H](CCC(N)=O)C(=O)N[C@@H](CCCCN)C(=O)N[C@@H](CC(C)C)C(=O)N[C@@H](CC(C)C)C(=O)N[C@@H](CCCCN)C(=O)N[C@@H](CCC(N)=O)C(=O)N[C@@H](CCC(N)=O)C(=O)N[C@@H](CCCNC(=N)N)C(=O)N[C@@H](CCC(N)=O)C(=O)N[C@@H](CCCNC(=N)N)C(=O)N[C@@H](CCCCN)C(=O)N[C@@H](CCC(=O)O)C(=O)N[C@@H](CCCNC(=N)N)C(=O)N[C@@H](CCC(N)=O)C(=O)N[C@@H](CCC(N)=O)C(=O)N[C@@H](C)C(=O)N[C@@H](CCC(=O)O)C(=O)N[C@@H](CCCCN)C(=O)N[C@@H](CC(N)=O)C(=O)N[C@@H](CCCCN)C(=O)N[C@@H](CCCNC(=N)N)C(=O)N[C@H](C(=O)N[C@@H](CC(C)C)C(=O)N[C@@H](CCC(=O)O)C(=O)N[C@@H](CCCNC(=N)N)C(=O)N[C@H](C(N)=O)C(C)C)[C@@H](C)CC)C(=O)O [SEQ ID NO: 226] (H-IVLSLD[dV]PIGLK([γGlu-Palmitoyl])QKLLKQQRQRKERQQAEKNKRILERV-NH2; N-terminus assumed) | 84
1.12 | 0.12 | 1.58 | CC[C@H](C)[C@H](N)C(=O)N[C@H](C(=O)N[C@@H](CC(C)C)C(=O)N[C@@H](CO)C(=O)N[C@@H](CC(C)C)C(=O)N[C@@H](CC(=O)O)C(=O)N[C@@H](C(=O)N1CCC[C@H]1C(=O)N[C@H](C(=O)N[C@@H](CCCCN)C(=O)N[C@@H](CC(C)C)C(=O)N[C@@H](CCCCNC(=O)CCCCCCCCCCCCCCCCC(=O)O)C(=O)N[C@@H](CCC(N)=O)C(=O)N[C@H](C(=O)N[C@@H](CC(C)C)C(=O)N[C@@H](CC(C)C)C(=O)N[C@@H](CCCCN)C(=O)N[C@@H](CCC(N)=O)C(=O)N[C@@H](C)C(=O)N[C@@H](CCCNC(=N)N)C(=O)N[C@@H](CCC(N)=O)C(=O)N[C@@H](CCCCN)C(=O)NC(C)(C)C(=O)N[C@@H](CCC(N)=O)C(=O)N[C@@H](CCCNC(=N)N)C(=O)N[C@@H](C)C(=O)N[C@@H](CCC(N)=O)C(=O)N[C@@H](C)C(=O)N[C@@H](CCC(=O)O)C(=O)N[C@@H](CCCCN)C(=O)N[C@@H](CC(N)=O)C(=O)N[C@@H](CCCCN)C(=O)N[C@@H](CCCNC(=N)N)C(=O)N[C@H](C(=O)N[C@@H](CC(C)C)C(=O)N[C@@H](CCC(=O)O)C(=O)N[C@@H](CCCNC(=N)N)C(=O)N[C@H](C(N)=O)C(C)C)[C@@H](C)CC)[C@@H](C)CC)[C@@H](C)CC)C(C)C)C(C)C [compound 183] (H-IVLSLD[dV]PIKLK(C18 diacid)QILLKQARQK[Aib]QRAQAEKNKRILERV-NH2; N-terminus assumed) | 
0.42 | 0.05 | 2.83 | CC[C@H](C)[C@H](N)C(=O)N[C@H](C(=O)N[C@@H](CC(C)C)C(=O)N[C@@H](CO)C(=O)N[C@@H](CC(C)C)C(=O)N[C@@H](CC(=O)O)C(=O)N[C@@H](C(=O)N1CCC[C@H]1C(=O)N[C@H](C(=O)N[C@@H](CCCCN)C(=O)N[C@@H](CC(C)C)C(=O)N[C@@H](CCCCNC(=O)CCCCCCCCCCCCCCCCC(=O)O)C(=O)N[C@@H](CCC(N)=O)C(=O)N[C@H](C(=O)N[C@@H](CC(C)C)C(=O)N[C@@H](CC(C)C)C(=O)N[C@@H](CCCCN)C(=O)N[C@@H](CCC(N)=O)C(=O)N[C@@H](CCC(=O)O)C(=O)N[C@@H](CCCNC(=N)N)C(=O)N[C@@H](CCC(N)=O)C(=O)N[C@@H](CCCCN)C(=O)N[C@@H](CCCCN)C(=O)N[C@@H](CCC(N)=O)C(=O)N[C@@H](CCCNC(=N)N)C(=O)N[C@@H](CCC(N)=O)C(=O)N[C@@H](CCC(N)=O)C(=O)N[C@@H](C)C(=O)N[C@@H](CCC(=O)O)C(=O)N[C@@H](CCCCN)C(=O)N[C@@H](CC(N)=O)C(=O)N[C@@H](CCCCN)C(=O)N[C@@H](CCC(N)=O)C(=O)N[C@H](C(=O)N[C@@H](CC(C)C)C(=O)N[C@@H](C)C(=O)N[C@@H](CCC(N)=O)C(=O)N[C@H](C(N)=O)C(C)C)[C@@H](C)CC)[C@@H](C)CC)[C@@H](C)CC)C(C)C)C(C)C [compound 184] (H-IVLSLD[dV]PIKLK(C18 diacid)QILLKQERQKKQRQQAEKNKQILAQV-NH2; N-terminus assumed) | 

SMILES | EC50 (rat CRF2R α receptor) [nM] | EC50 (human CRF2α receptor; [1]) [nM] | EC50 (human CRF2α receptor; [2]) [nM] | Emax (CRF1R receptor) [%]
CCCCCCCCCCCCCCCC(=O)N[C@@H](CCC(=O)NCCCC[C@H](NC(=O)[C@H](CC(C)C)NC(=O)[C@H](CCCCN)NC(=O)[C@@H](NC(=O)[C@@H]1CCCN1C(=O)[C@H](NC(=O)[C@H](CC(=O)O)NC(=O)[C@H](CC(C)C)NC(=O)[C@H](CO)NC(=O)[C@H](CC(C)C)NC(=O)[C@@H](NC(=O)[C@@H](N)[C@@H](C)CC)C(C)C)C(C)C)[C@@H](C)O)C(=O)N[C@@H](CCC(N)=O)C(=O)N[C@@H](CCCCN)C(=O)N[C@@H](CC(C)C)C(=O)N[C@@H](CC(C)C)C(=O)N[C@@H](CCCCN)C(=O)N[C@@H](CCC(N)=O)C(=O)N[C@@H](CCC(=O)O)C(=O)N[C@@H](CCCNC(=N)N)C(=O)N[C@@H](CCC(N)=O)C(=O)N[C@@H](CCCNC(=N)N)C(=O)N[C@@H](CCCCN)C(=O)N[C@@H](CCC(=O)O)C(=O)N[C@@H](CCCNC(=N)N)C(=O)N[C@@H](CCC(=O)O)C(=O)NC(C)(C)C(=O)N[C@@H](C)C(=O)N[C@@H](CCC(=O)O)C(=O)N[C@@H](CCCCN)C(=O)N[C@@H](CC(N)=O)C(=O)N[C@@H](CCCCN)C(=O)N[C@@H](CCCNC(=N)N)C(=O)N[C@H](C(=O)N[C@@H](CC(C)C)C(=O)N[C@@H](CCC(=O)O)C(=O)N[C@@H](CCCNC(=N)N)C(=O)N[C@H](C(N)=O)C(C)C)[C@@H](C)CC)C(=O)O [SEQ ID NO: 225, IVLSLDvPTKLK*QKLLKQERQRKEREAibAEKNKRILERV-NH2] (H-IVLSLD[dV]PTKLK([γGlu-Palmitoyl])QKLLKQERQRKERE[Aib]AEKNKRILERV-NH2; N-terminus assumed) | 0.12 |  |  | 58.9
